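GI50 is the concentration that inhibits growth by half. TGI is the concentration that stops growth completely.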
Key:
Test in all cases: NCI tumour cell line growth inhibition, 384-well format
ACHN renal = tested on: ACHN renal
MDA-MB-231 breast = tested on: MDA-MB-231 breast
CAKI-1 renal = tested on: CAKI-1 renal
SK-MEL-5 melanoma = tested on: SK-MEL-5 melanoma
SF-539 CNS = tested on: SF-539 CNS
A498 renal = tested on: A498 renal
COLO 205 colon = tested on: COLO 205 colon
SR leukemia = tested on: SR leukemia
NCI-H226 lung = tested on: NCI-H226 lung
MOLT-4 leukemia = tested on: MOLT-4 leukemia
SF-295 CNS = tested on: SF-295 CNS
KM12 colon = tested on: KM12 colon
NCI-H322M lung = tested on: NCI-H322M lung

Question: For `CC[C@H](Nc1ncnc2nc[nH]c12)c1oc2ccccc2c(=O)c1-c1cccc(F)c1`, which GI50 (ACHN renal) is on record?
Answer: 23.2 µM

Question: What about the TGI (ACHN renal) of the same compound?
Answer: 77.5 µM

Question: And the GI50 (MDA-MB-231 breast)?
Answer: 26.2 µM

Question: And the TGI (MDA-MB-231 breast)?
Answer: > 100 µM

Question: What about the GI50 (CAKI-1 renal) of the same compound?
Answer: 28.6 µM

Question: And the TGI (CAKI-1 renal)?
Answer: > 100 µM

Question: And the GI50 (SK-MEL-5 melanoma)?
Answer: 17.9 µM

Question: What about the TGI (SK-MEL-5 melanoma) of the same compound?
Answer: 39.7 µM

Question: And the GI50 (SF-539 CNS)?
Answer: 45.9 µM

Question: And the TGI (SF-539 CNS)?
Answer: > 100 µM

Question: What about the GI50 (A498 renal) of the same compound?
Answer: 27.8 µM

Question: And the TGI (A498 renal)?
Answer: > 100 µM

Question: What about the GI50 (COLO 205 colon) of the same compound?
Answer: 42.4 µM

Question: What about the TGI (COLO 205 colon) of the same compound?
Answer: > 100 µM

Question: And the GI50 (SR leukemia)?
Answer: 12.4 µM

Question: What about the TGI (SR leukemia) of the same compound?
Answer: 25.2 µM

Question: And the GI50 (NCI-H226 lung)?
Answer: 23.8 µM

Question: What about the TGI (NCI-H226 lung) of the same compound?
Answer: 83 µM

Question: What about the GI50 (MOLT-4 leukemia) of the same compound?
Answer: 15.8 µM

Question: And the TGI (MOLT-4 leukemia)?
Answer: 29.6 µM

Question: And the GI50 (SF-295 CNS)?
Answer: 20.7 µM

Question: And the TGI (SF-295 CNS)?
Answer: > 74.6 µM

Question: And the GI50 (KM12 colon)?
Answer: 36.8 µM

Question: And the TGI (KM12 colon)?
Answer: > 100 µM

Question: What about the GI50 (NCI-H322M lung) of the same compound?
Answer: 90.5 µM

Question: And the TGI (NCI-H322M lung)?
Answer: > 100 µM

From PubChem BioAssay (NCI)
